System: Subjects With Active Crohn's Disease
Experiment: Total cholesterol determination, Study 5 (Crohn's disease, monotherapy of Compound 1)
Format: in vivo, human
Conditions: for [Total cholesterol] Mean CFB - 10 weeks results / [Total cholesterol] Median CFB - 10 weeks results / [Total cholesterol] Median CFB / [total cholesterol] Mean CFB: 200 mg q.d.; for [Total cholesterol] Median CFB / [total cholesterol] Mean CFB: Study 5 10 weeks results
Excerpt: Double-Blind, Randomized, Placebo-Controlled, Multi-Centre Study to Investigate the Efficacy and Safety of Compound 1 in Subjects With Active Crohn's Disease With Evidence of Mucosal Ulceration.
This is a double-blind, randomized, placebo-controlled, multi-centre Phase 2 study to investigate the efficacy and safety of Compound 1 administered once daily for the treatment of active CD with evidence of mucosal ulceration. The pharmacokinetics (including a PK substudy) and pharmacodynamics of Compound 1 and metabolite in CD will also be characterised.
A total of 180 eligible subjects will be randomized to receive Compound 1 or placebo in addition to their stable background treatment (eg, corticosteroids, aminosalicylates, or CD-related antibiotics). The study will consist of 2 parts, with total treatment duration of 20 weeks. Randomization in Part 1 will be stratified according the subject's previous anti-TNF exposure/response, CRP level at Screening, and oral corticosteroid use at visit Day −1.
After the first 10 weeks of treatment in Part 1, patients will be re-randomized for Part 2 as shown in the diagram below and will be stratified according to the subject's clinical response, previous anti-TNF exposure/response, and oral corticosteroid use at visit Day −1.
The following assays were conducted at Eurofins Global Central Laboratory, Bergschot 71, 4817 PA Breda, The Netherlands, and at Quest Diagnostics, Clinical Trials, Quest House, 125-135 Staines Road, Hounslow, Middlesex, TW3 3JB, United Kingdom. The assays for Study 5 were performed at BARC Europe, 3B, Industrie Park, Zwijnaarde, B-9052 Ghent, Belgium.
This method is based on the determination of Δ^4 cholestenone after enzymatic cleavage of the cholesterol ester by cholesterol esterase, conversion of cholesterol by cholesterol oxidase, and subsequent measurement by the Trinder reaction of the hydrogen peroxide formed (Allain et al., 1974).
Cholesterol esters are cleaved by the action of cholesterol esterase to yield free cholesterol and fatty acids. Cholesterol oxidase then catalyzes the oxidation of cholesterol to cholest-4-en-3-one and hydrogen peroxide. In the presence of peroxidase, the hydrogen peroxide formed effects the oxidative coupling of phenol and 4-aminophenazone to form a red quinone-imine dye. The color intensity of the dye formed is directly proportional to the cholesterol concentration. It is determined by measuring the increase in absorbance.
Human serum and plasma samples cholesterol determination was done on a Roche/Hitachi Cobas c 701/702 system which automatically calculate the analyte concentration of each sample.

[1] = 200 mg q.d. continued to week 20, week 2
[2] = 200 mg q.d. continued to week 20, week 4
[3] = 200 mg q.d. continued to week 20, week 6
[4] = 200 mg q.d. continued to week 20, week 10
[5] = 200 mg q.d. continued to week 20, week 12
[6] = 200 mg q.d. continued to week 20, week 16
[7] = 200 mg q.d. continued to week 20, week 20
[8] = 200 mg q.d. week 0 to 10, to 100 mg q.d. week 10 to 20, week 2
[9] = 200 mg q.d. week 0 to 10, to 100 mg q.d. week 10 to 20, week 4
[10] = 200 mg q.d. week 0 to 10, to 100 mg q.d. week 10 to 20, week 6
[11] = 200 mg q.d. week 0 to 10, to 100 mg q.d. week 10 to 20, week 10
[12] = 200 mg q.d. week 0 to 10, to 100 mg q.d. week 10 to 20, week 12
[13] = 200 mg q.d. week 0 to 10, to 100 mg q.d. week 10 to 20, week 16
[14] = 200 mg q.d. week 0 to 10, to 100 mg q.d. week 10 to 20, week 20
[15] = 200 mg q.d. week 0 to 10, to placebo week 10 to 20, week 2
[16] = 200 mg q.d. week 0 to 10, to placebo week 10 to 20, week 4
[17] = 200 mg q.d. week 0 to 10, to placebo week 10 to 20, week 6
[18] = 200 mg q.d. week 0 to 10, to placebo week 10 to 20, week 10
[19] = 200 mg q.d. week 0 to 10, to placebo week 10 to 20, week 12
[20] = 200 mg q.d. week 0 to 10, to placebo week 10 to 20, week 16
[21] = 200 mg q.d. week 0 to 10, to placebo week 10 to 20, week 20

With `O=C(Nc1nc2cccc(-c3ccc(CN4CCS(=O)(=O)CC4)cc3)n2n1)C1CC1` [Compound 1, cyclopropanecarboxylic acid {5-[4-(1,1-dioxo-thiomorpholin-4-ylmethyl)-phenyl]-[1,2,4]triazolo[1,5-a]pyridin-2yl}-amide] the “[Total cholesterol] Mean CFB - 20 weeks results” value [1] was 7.30%, the “[Total cholesterol] Median CFB - 20 weeks results” value [1] was 5.15% and the “[Total cholesterol] Mean CFB - 20 weeks results” value [2] was 5.06%. The “[Total cholesterol] Median CFB - 20 weeks results” value [2] was 2.70%, the “[Total cholesterol] Mean CFB - 20 weeks results” value [3] was 6.70% and the “[Total cholesterol] Median CFB - 20 weeks results” value [3] was 7.88%. The “[Total cholesterol] Mean CFB - 20 weeks results” value [4] was 11.58%, the “[Total cholesterol] Median CFB - 20 weeks results” value [4] was 9.98% and the “[Total cholesterol] Mean CFB - 20 weeks results” value [5] was 11.06%. For the same compound, the “[Total cholesterol] Median CFB - 20 weeks results” value [5] was 6.99%, the “[Total cholesterol] Mean CFB - 20 weeks results” value [6] was 11.13% and the “[Total cholesterol] Median CFB - 20 weeks results” value [6] was 6.91%. For the same compound, the “[Total cholesterol] Mean CFB - 20 weeks results” value [7] was 11.03%, the “[Total cholesterol] Median CFB - 20 weeks results” value [7] was 5.31% and the “[Total cholesterol] Mean CFB - 20 weeks results” value [8] was 4.54%. The “[Total cholesterol] Median CFB - 20 weeks results” value [8] was 4.08%, the “[Total cholesterol] Mean CFB - 20 weeks results” value [9] was 6.72% and the “[Total cholesterol] Median CFB - 20 weeks results” value [9] was 1.92%. For the same compound, the “[Total cholesterol] Mean CFB - 20 weeks results” value [10] was 6.47%, the “[Total cholesterol] Median CFB - 20 weeks results” value [10] was 5.89% and the “[Total cholesterol] Mean CFB - 20 weeks results” value [11] was 9.72%. The “[Total cholesterol] Median CFB - 20 weeks results” value [11] was 7.10%, the “[Total cholesterol] Mean CFB - 20 weeks results” value [12] was 5.38% and the “[Total cholesterol] Median CFB - 20 weeks results” value [12] was 7.04%. The “[Total cholesterol] Mean CFB - 20 weeks results” value [13] was 2.89%, the “[Total cholesterol] Median CFB - 20 weeks results” value [13] was 2.83% and the “[Total cholesterol] Mean CFB - 20 weeks results” value [14] was 3.80%. For the same compound, the “[Total cholesterol] Median CFB - 20 weeks results” value [14] was 2.28%, the “[Total cholesterol] Mean CFB - 20 weeks results” value [15] was 3.98% and the “[Total cholesterol] Median CFB - 20 weeks results” value [15] was 3.93%. The “[Total cholesterol] Mean CFB - 20 weeks results” value [16] was 6.98%, the “[Total cholesterol] Median CFB - 20 weeks results” value [16] was 6.38% and the “[Total cholesterol] Mean CFB - 20 weeks results” value [17] was 5.72%. The “[Total cholesterol] Median CFB - 20 weeks results” value [17] was 7.32%, the “[Total cholesterol] Mean CFB - 20 weeks results” value [18] was 5.28% and the “[Total cholesterol] Median CFB - 20 weeks results” value [18] was 3.89%. For the same compound, the “[Total cholesterol] Mean CFB - 20 weeks results” value [19] was 1.82%, the “[Total cholesterol] Median CFB - 20 weeks results” value [19] was 3.93% and the “[Total cholesterol] Mean CFB - 20 weeks results” value [20] was 5.24%. For the same compound, the “[Total cholesterol] Median CFB - 20 weeks results” value [20] was 1.36%, the “[Total cholesterol] Mean CFB - 20 weeks results” value [21] was 3.92% and the “[Total cholesterol] Median CFB - 20 weeks results” value [21] was 2.50%. For the same compound, the “[Total cholesterol] Mean CFB - 10 weeks results” value (week 2) was 6.066%, the “[Total cholesterol] Median CFB - 10 weeks results” value (week 2) was 4.148% and the “[Total cholesterol] Mean CFB - 10 weeks results” value (week 4) was 5.803%. For the same compound, the “[Total cholesterol] Median CFB - 10 weeks results” value (week 4) was 3.803%, the “[Total cholesterol] Mean CFB - 10 weeks results” value (week 6) was 6.458% and the “[Total cholesterol] Median CFB - 10 weeks results” value (week 6) was 7.187%. The “[Total cholesterol] Mean CFB - 10 weeks results” value (week 10) was 9.976%, the “[Total cholesterol] Median CFB - 10 weeks results” value (week 10) was 7.456% and the “[Total cholesterol] Median CFB” value (week 2) was 0.200 mmol/L. The “[total cholesterol] Mean CFB” value (week 2) was 0.231 mmol/L, the “[Total cholesterol] Median CFB” value (week 4) was 0.180 mmol/L and the “[total cholesterol] Mean CFB” value (week 4) was 0.194 mmol/L. For the same compound, the “[Total cholesterol] Median CFB” value (week 6) was 0.300 mmol/L and the “[total cholesterol] Mean CFB” value (week 6) was 0.215 mmol/L.
